Results as given in US20240082238A1, “COMPOSITIONS AND METHODS FOR TREATING CANCER” (UNIVERSITY OF IOWA RESEARCH FOUNDATION, priority 2021, published 2024).

Assays:
[1] = test system: tubulin; assay: Fluorescence-based tubulin polymerization assay; assay type: biochemical; details: 3 μM
Text: Tubulin polymerization assay. Microtubules are one of the major cytoskeleton components in the cells, and they play an essential role in the spindle formation generated by α and β tubulin polymerization. Agents targeting microtubules function through two different mechanisms. To elaborate, several compounds like taxanes (e.g., PTX) promote the assembly of microtubules and are known to stabilize the microtubes whereas other compounds such as vinca alkaloid and colchicine are known to interrupt the spindle formation via inhibiting the tubulin polymerization; thereby, destabilize the microtubules. The result of both scenarios is metaphase arrest which induces apoptosis. To test the tubulin activity, a fluorescence-based tubulin polymerization assay (Cat. No. BK011P, Cytoskeleton Inc., Denver, CO) was performed according to the manufacturer's instructions. Briefly, stock solutions of PTX and CIP2b (in DMSO) were diluted with UltraPure™ water to make a final concentration of 3 μM. […] Before starting the experiment, the 96-well plate and fluorimeter (SpectraMax M5 Microplate Reader) were pre-warmed to 37° C. […] Samples and tubulin were added to a 96-well plate, and the plate was inserted into the plate reader. Kinetic measurements started immediately, and data were collected and analyzed.

[2] = test system: LLC-PK1-WT cells; assay: Cytotoxicity assay (MTS), LLC-PK1-WT cells; assay type: cell-based, porcine; details: Sus scrofa; PTX alone, 72 h
Description: (§1) Cytotoxicity assay. Hec50co cells were seeded at 1500 cells per well in 96-well plates for 24 h in a complete medium. Later, the medium was removed and PTX, CIP2b, or CIP (all dissolved in DMSO and diluted in complete medium) were added to cells as either monotherapies or in combinations, and the plates were incubated for 72 hours. Then, the complete medium was removed and MTS reagent in the complete medium was added to wells, and the plates were incubated for 1-4 hours according to the manufacturer's protocol. Finally, the absorbance was recorded at 490 nm using a Spectra Max plus 384 Microplate Spectrophotometer (Molecular Devices, Sunnyvale, CA). Percentage cell viability was expressed as the average absorbance of the test group relative to that of the control group (untreated cells). The concentration that inhibits proliferation of 50% of cells compared to control (IC50) was calculated using GraphPad Prism (La Jolla, CA). Synergism was detected following the Chou-Talalay method (CI<1 indicates synergism) (Chou T C. Cancer research. 2010; 70(2):440-6, doi: 10.1158/0008-5472.CAN-09-1947) using CompuSyn software (Ver. 1.0).
P-gp efflux transporter. Overexpression of the MDR1 gene, reflected in the abundance of the P-gp efflux pump, is one of the major reasons for PTX chemoresistance in cancer. In this study, LLC-PK1-WT and LLC-PK1-MDR1 cell lines were used. […]

[3] = biological target: T1, human Topo IIα (Homo sapiens, UniProt P11388); assay: Topoisomerase II inhibition assay (plasmid-based); assay type: biochemical; details: drug final concentration 100 μM; read-out: percentage of Topo II inhibition
T1 construct: purchased TopoGEN Inc. TG1001-1A
Description: Topoisomerase II inhibition assay. A plasmid-based Topo II assay (Cat. No. TG1001-1A, TopoGEN Inc., Buena Vista, CO) was performed according to the manufacturer's instructions. In this experiment, 1 μL of tested compounds (PTX, CIP, CIP2b, ETO) at a concentration of 2 mM was mixed with 4 μL of the reaction buffer (mixture of buffer A (0.5 M Tris-HCl (pH 8), 1.50 M NaCl, 100 mM MgCl2, 5 mM Dithiothreitol, 300 μg BSA/mL) and buffer B (10× ATP Buffer), and deionized water was added to make 18 μL solution. This was followed by adding 1 μL of catenated DNA and 1 μL of human Topo IIα (8 U/μL) (drug final concentration was 100 μM). Additionally, decatenated DNA (De-CT DNA) and catenated DNA (CT DNA)±Topo II were used as a control (i.e., not containing drugs). Moreover, relaxed DNA was added as another control in this assay. Similar to Topo I assay, samples were then incubated on a heating block set at 37° C. for 30 minutes. Then, the reaction was stopped by the addition of a 5× stop buffer. Samples were then loaded directly into the wells of a 1% agarose gel containing 1 μg/mL ethidium bromide. The gel was run at 150 V until the dye front had traveled approximately 5 cm (run time was approximately 2 h). The gel was then washed with deionized water for 30 minutes before imaging. The image was taken using an Invitrogen iBright CL1500 Imaging System. The intensity of the final bands in the gel was quantified using ImageJ, and the results are expressed as the percentage of Topo II inhibition.

[4] = Cytotoxicity assay (MTS) and bright-field microscopy, LLC-PK1-MDR1 cells; assay type: cell-based, porcine; details: pig, LLC-PK1-MDR1 cells (overexpressing P-gp), PTX alone, maximum concentration used 50 nM
Description: as §1, with “The concentration that inhibits proliferation of 50% of cells compared to control (IC50) was calculated using GraphPad Prism (La Jolla, CA).” left out, “1.0). P-gp efflux transporter. Overexpression of the MDR1 gene, reflected in the abundance of the P-gp efflux pump, is one of the major reasons for PTX chemoresistance in cancer. In this study, LLC-PK1-WT and LLC-PK1-MDR1 cell lines were used. MTS assay and the PTX intracellular accumulation experiment were performed as previously described above.” for “1.0).”

T1 sequence (P11388 whole entry): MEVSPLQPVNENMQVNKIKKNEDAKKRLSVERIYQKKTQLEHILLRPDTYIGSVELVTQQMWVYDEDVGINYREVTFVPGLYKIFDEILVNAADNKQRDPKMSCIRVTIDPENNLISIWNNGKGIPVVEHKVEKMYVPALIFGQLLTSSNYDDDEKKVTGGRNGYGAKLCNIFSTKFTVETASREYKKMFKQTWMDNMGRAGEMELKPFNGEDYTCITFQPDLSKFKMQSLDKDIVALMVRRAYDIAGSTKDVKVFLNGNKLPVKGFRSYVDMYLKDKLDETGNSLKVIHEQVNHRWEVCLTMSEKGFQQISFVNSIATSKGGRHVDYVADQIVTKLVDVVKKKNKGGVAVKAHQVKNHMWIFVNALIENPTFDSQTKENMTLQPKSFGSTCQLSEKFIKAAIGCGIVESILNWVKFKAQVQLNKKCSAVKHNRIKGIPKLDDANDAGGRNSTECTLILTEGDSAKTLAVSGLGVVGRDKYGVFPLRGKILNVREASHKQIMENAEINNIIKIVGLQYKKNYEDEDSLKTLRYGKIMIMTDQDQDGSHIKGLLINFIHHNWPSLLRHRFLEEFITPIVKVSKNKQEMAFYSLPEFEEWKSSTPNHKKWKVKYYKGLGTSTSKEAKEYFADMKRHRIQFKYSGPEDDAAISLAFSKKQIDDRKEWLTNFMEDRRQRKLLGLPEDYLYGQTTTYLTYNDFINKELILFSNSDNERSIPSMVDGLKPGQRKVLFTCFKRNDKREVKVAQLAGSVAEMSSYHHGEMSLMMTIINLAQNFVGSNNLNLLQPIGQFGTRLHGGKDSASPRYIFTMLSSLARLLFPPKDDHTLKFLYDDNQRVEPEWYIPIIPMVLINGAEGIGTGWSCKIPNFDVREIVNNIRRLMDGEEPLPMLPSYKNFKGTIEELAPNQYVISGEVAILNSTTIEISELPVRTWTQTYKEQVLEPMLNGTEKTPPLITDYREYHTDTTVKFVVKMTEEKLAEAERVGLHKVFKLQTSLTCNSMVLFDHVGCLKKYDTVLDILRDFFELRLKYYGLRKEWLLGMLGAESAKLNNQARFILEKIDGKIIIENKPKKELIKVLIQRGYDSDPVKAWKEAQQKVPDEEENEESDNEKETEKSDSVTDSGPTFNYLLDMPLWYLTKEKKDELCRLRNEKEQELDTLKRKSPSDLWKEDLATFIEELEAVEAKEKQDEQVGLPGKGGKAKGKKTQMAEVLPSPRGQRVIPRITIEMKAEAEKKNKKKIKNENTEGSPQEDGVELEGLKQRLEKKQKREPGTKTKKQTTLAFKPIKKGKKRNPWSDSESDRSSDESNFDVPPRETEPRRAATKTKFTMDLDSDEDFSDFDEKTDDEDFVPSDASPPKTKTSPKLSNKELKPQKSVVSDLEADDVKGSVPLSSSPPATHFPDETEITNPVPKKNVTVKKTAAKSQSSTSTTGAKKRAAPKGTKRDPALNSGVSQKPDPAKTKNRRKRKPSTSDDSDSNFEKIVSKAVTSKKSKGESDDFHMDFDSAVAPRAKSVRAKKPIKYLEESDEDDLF

inhibition at 100 µM [3]: 8%
SMILES: CC(=O)O[C@H]1C(=O)[C@@]2(C)[C@H]([C@H](OC(=O)c3ccccc3)[C@]3(O)C[C@H](OC(=O)[C@H](O)[C@@H](NC(=O)c4ccccc4)c4ccccc4)C(C)=C1C3(C)C)[C@]1(OC(C)=O)CO[C@@H]1C[C@@H]2O [PTX, paclitaxel]
rate of tubulin polymerization [1]: promoted
onset of tubulin polymerization ([1]; tubulin alone 15 min): approximately 5 minutes
IC50 [2]: 21.3 nM
IC50 at 72 h [4]: > 50 nM
